Patent US20130116326A1, “TREATMENT OF DELAYED CUTANEOUS HYPERSENSITIVITY CONDITIONS WITH S-FARNESYLTHIOSALICYLIC ACID AND ANALOGS THEREOF” (RAMOT AT TEL-AVIV UNIVERSITY LTD., priority 2010, published 2013)
“Also recorded” adds a separate entry of the source.

Columns and labels:
Rap1 [1] = assay: Rap1 inhibition by geranylgeranyl analogue (data not shown)
Rap1 [2] = assay: Confocal microscopy of Rap1 localization and activation in Jurkat T cells; assay type: cell-based, human
Experimental: Live cells were plated in 35-mm dishes containing a no. 0 glass coverslip over a 15-mm cutout (MatTek, Ashland, Mass). Cells were maintained at 37° C. using a PDMI-2 microincubator (Harvard Apparatus, Holliston, Mass.). Individual cells were imaged before and after addition of stimuli. Images were acquired with a Zeiss 510 inverted laser scanning confocal microscope (Carl Zeiss Microlmaging, Inc., Thornwood, N.Y.) and processed with Adobe Photoshop CS.
It has been reported that only the pool of Rap1 at the plasma membrane becomes GTP bound on lymphocyte activation (9). The following experiments were designed to study whether Rap1 inhibition by FTS-A is indeed restricted to that compartment. Jurkat T cells, expressing GFP tagged Rap1, were subjected to various agents (FIG. 4A), whereas the localization of Rap1 was recorded by confocal microscopy.
The effects of FTS are rather specific to the active GTP-bound forms of Ras proteins (7). To investigate the possible effect of FTS-A on localization of the active Rap1, the probe for activated Rap1, GFP-RBDRALGDS (13), was utilized. […] In cells that were pretreated by FTS-A, the activation of Rap1 at the plasma membrane was blocked (FIG. 4B) although Rap1 remained associated with the plasma membrane (FIG. 4A). Thus, the pool of Rap1 that is inhibited by FTS-A is found at the plasma membrane.

T cells = assay: Viable cell count by tryptan blue exclusion; assay type: cell-based; details: various concentrations for 72 hours, higher doses, FIG. 3A
Experimental: Thus, this analog was used for further experiments. First, […] were treated with various concentrations of FTS-A for 72 hours.

Rap1 [3] = assay: GST pull-down of GTP.Rap1 (Rap1 GTP loading) in Jurkat T cells; assay type: cell-based, human; details: for lowering of the amount of GTP.Rap1: Jurkat T cells treated overnight, then stimulated with anti CD3 antibodies for 10 minutes, FIG. 1C; for ability to inhibit Rap1 activation, comparison among agents: 50 μM overnight; for amount of GTP.Rap1 compared with untreated cells: quiescent Jurkat T cells, treated overnight, 50 μM, FIG. 1A
Experimental: (§1) Jurkat T cells were obtained from the American Type Culture Collection (ATCC) (Manassas, VA). The cells were maintained in RPMI 1640 supplemented with 10% FCS, 2 mM 1-glutamine, and 1% penicillin/streptomycin (Biological Industries, Kibutz Beit Haemek, Israel). Panc-1 cells (ATCC) were grown in Dulbecco's modified Eagle medium (DMEM) containing 10% FCS, 2 mM 1-glutamine, and 1% penicillin/streptomycin. The cells were incubated at 37° C. in a humidified atmosphere of 95% air and 5% CO2. Transfection of Jurkat cells was performed with DMRIE-C (Invitrogen, Carlsbad, Calif.), and cells were examined 24 to 48 hours later. Jurkat T cells were serum starved at 37° C. for 2 to 6 hours, followed by stimulation with 5 μg/ml of mouse anti-human CD3.
(§2) Detection of activated Ras and Rap1 was performed as described previously (4, 9).
Samples were separated by SDS-PAGE using 10% polyacrylamide gels and transferred to nitrocellulose filters. Blots were blocked for 1 hour in TBST (10 mM Tris-HCl (pH 8.0), 150 mM NaCl, and 0.05% Tween 20) containing 3% serum bovine albumin, followed by overnight incubation at 4° C. with the primary antibodies. Blots were washed and incubated for 1 hour at room temperature with HRP-conjugated secondary antibodies. Immunoreactive bands were visualized using the LAS-3000 imaging system (Fujifilm Corp., Tokyo).
The experiments were designed to determine whether FTS and its analogs are able to inhibit GTP loading of Rap1. Quiescent Jurkat T cells were treated overnight with FTS, FTS-A, and FTS-MOM, each at a concentration of 50 μM. Cells were collected and the quantity of GTP.Rap1 was determined by pull-down assay. Compared with untreated cells (control), the amount of GTP.Rap1 decreased in all conditions (FIG. 1A). […] Since Rap1 is activated in T cells as a result of crosslinking the antigen receptor, the effect of FTS, and its analogs, on Rap1 activation in stimulated T cells, was studied. Cells were treated with FTS and its analogs overnight, and subsequently stimulated with anti CD3 antibodies for 10 minutes. […] FTS lowered the amount of GTP.Rap1 by 32%, while FTS-A and FTS-MOM lowered it by 60% and 53%, respectively (FIG. 1C). Thus, FTS and its analogs are able to inhibit Rap1 activation in T cells stimulated through the antigen receptor.

[4] = tested on: contact sensitivity reaction to DNFB; assay: Contact sensitivity to DNFB, ear swelling in mice; assay type: in vivo, BALB/c female mice
Experimental: The Institutional Ethics Committee of Tel Aviv University approved the study. BALB/c female mice at 8 to 10 weeks of age were used. Oral administration of FTS-A required doses of 50 and 100 mg/kg (10). The compound 2,4-dinitro-l-fluorobenzene (DNFB) and olive oil were obtained from Sigma-Aldrich (St. Louis, Mo.). Mice were sensitized on the shaved abdomen with 50 μl of 0.5% DNFB in a vehicle of 4:1 acetone:olive oil. Mice were ear challenged with 20 μl t of 0.2% DNFB in a vehicle of 4:1 acetone:olive oil after 5 days. A constant area of the ears was measured immediately before challenge and 24 hours later with an engineer's micrometer (Ozaki Mfg. Co., Itabashi, Tokyo). Ear swelling was expressed as the difference in ear thickness before and after the challenge (11).
Next, the ability of FTS-A to inhibit Rap-1-dependent T cell adhesion in vivo was investigated by using contact sensitivity (15) as a model system. Animals were treated orally with two different concentrations of FTS-A (50 mg/kg and 100 mg/kg). […] When treatment was introduced only during the challenge phase (days 5-6), ear swelling was also attenuated.

Rap1 [5] = assay: Rap1 GTP loading in Panc-1 cells; assay type: cell-based; details: for inhibition of Rap1 GTP loading: Panc-1 cells, FIG. 6A; for selectivity between Ras and Rap1: profile of inhibition Ras versus Rap1
Experimental: as §1, §2
(§3) Since FTS is known to inhibit Ras, experiments were designed to determine whether the mechanism of Rap1 inhibition by FTS analogs is indirect and mediated by Ras inhibition. Applicants compared the inhibitory profile of FTS and its analogs on both Ras GTP loading and Rap1 GTP loading in Panc-1 cells (FIG. 6B). […] J Med Chem 2009; 52:197-205]. […] Thus, the extent of Ras and Rap1 inhibition by FTS and its analogs is not identical.

Ras = Ras GTP loading in Panc-1 cells; assay type: cell-based; details: FIG. 6, also as previously reported (ref. 16)
Experimental: as §1, §2, §3

CC(C)=CCC/C(C)=C/CC/C(C)=C/CC/C(C)=C/CSc1ccccc1C(=O)O [GGTS]
Rap1 inhibition compared with FTS analogs (Rap1 [1]): did not prove to be a stronger Rap1 inhibitor

CC(C)=CCCC(C)=CCCC(C)=CCSc1ccccc1C(N)=O [FTS-A, FTS-amide]
activation of Rap1 at the plasma membrane (Rap1 [2]; GFP-RBDRALGDS probe, pretreated cells stimulated through the antigen receptor, FIG. 4B): blocked
localization of overexpressed Rap1 (Rap1 [2]; Jurkat T cells expressing GFP tagged Rap1, treatment up to 72 hours, FIG. 4A): did not change
localization of Rap-1 (Rap1 [2]; combined treatment with Bryostatin-1 and FTS-A, FIG. 4A): did not change
number of viable cells (T cells): decreased
lowering of the amount of GTP.Rap1 (Rap1 [3]): 60%
ability to inhibit Rap1 activation, comparison among agents (Rap1 [3]; Jurkat T cells): superior to FTS; also recorded: greatest amount of Rap1 inhibition
inhibitory effect on Rap1 when Ras is knocked down (Rap1 [3]; Jurkat T cells, N-Ras and K-Ras knocked down via shRNA, FIG. 6B): unchanged
amount of GTP.Rap1, dose-response (Rap1 [3]; higher doses of FTS-A, FIG. 3B): further diminished
amount of GTP.Rap1 compared with untreated cells (Rap1 [3]): decreased
development of contact sensitivity reaction to DNFB ([4]; animal models, dose not given): strongly inhibited
ear swelling ([4]; oral, 50 mg/kg, FIG. 5A): only the higher concentration of FTS-A was able to inhibit ear swelling
ear swelling ([4]; oral, 100 mg/kg, FIG. 5A): able to inhibit ear swelling
ear swelling ([4]; treatment during the sensitization phase (days 0-2), FIG. 5B): did not prevent ear swelling
ear swelling ([4]; treatment only during the challenge phase (days 5-6), FIG. 5B): attenuated
inhibition of Rap1 GTP loading (Rap1 [5]): much greater inhibitory activity toward Rap1 than FTS
selectivity between Ras and Rap1 (Rap1 [5]): inhibited both Ras and Rap1

COCOC(=O)c1ccccc1SCC=C(C)CCC=C(C)CCC=C(C)C [FTS-MOM, methoxymethyl S-farnesylthiosalicylate]
lowering of the amount of GTP.Rap1 (Rap1 [3]): 53%
ability to inhibit Rap1 activation, comparison among agents (Rap1 [3]; Jurkat T cells): superior to FTS
amount of GTP.Rap1 compared with untreated cells (Rap1 [3]): decreased
inhibition of Ras GTP loading (Ras): weak Ras inhibitor; also recorded: only a minor inhibitory effect
inhibition of Rap1 GTP loading (Rap1 [5]): by far the stronger Rap1 inhibitor; also recorded: strong Rap1 inhibitor
selectivity between Ras and Rap1 (Rap1 [5]): toward Rap1

CC(C)=CCC/C(C)=C/CC/C(C)=C/CSc1ccccc1C(=O)O [FTS, S-trans,trans-farnesylthiosalicylic acid]
lowering of the amount of GTP.Rap1 (Rap1 [3]): 32%
amount of GTP.Rap1 compared with untreated cells (Rap1 [3]): decreased
inhibition of Ras GTP loading (Ras): comparable to FTS-A
activation phase of delayed cutaneous hypersensitivity in vivo ([4]; summary statement): inhibits
inhibition of Rap1 GTP loading (Rap1 [5]): relatively modest
selectivity between Ras and Rap1 (Rap1 [5]): relatively high selectivity of FTS towards Ras
